Measurements taken from patent EP0374249A1, “METHOD OF STERILIZING PLANT POLLEN” (VSESOJUZNY NAUCHNO-ISSLEDOVATELSKY INST. SELSKOKHOZYAISTV. …, priority 1988, dated 1989).

Tests used:
[1] = test system: Linie BK-119; test: Field test of pollen sterilisation, sunflower line BK-119; type: in vivo, Sonnenblume; settings: period V, 0.5% emulsion; for Prozentsatz der Sterilität: 3 kg/ha (N-Karbamoylmaleaminsäure) or 0.1% emulsion, 1 kg/ha (N-(3-Dimethylaminopropyl)-maleaminsäure); for Ansetzen von Ächänen bei freier Bestäubung in %: 3 kg/ha or 0.1% emulsion, 1 kg/ha, free pollination
Text: (§1) Die gametozide Aktivität der erfindungsgemässen Sterilisationsmittel war im Feldversuch in verschiedenen Bodenklimatischen Zonen mit Teilstücken von 10 m^2 Grösse in drei- bis viermaliger Wiederholung nachgewiesen. Jedes Sterilisationsmittel wurde mindestens 5 Jahre lang geprüft.
(§2) Die Entwicklung der Perioden der Organogenese wird zytologischüberwacht. Die Behandlung von Pflanzen mit dem Sterilisationsmittel erfolgt am Anfang der fünften Periode der Organogenese nach Kupermann.
(§3) Zur Kontrolle der chemischen Sterilisation des Sonnenblumenpollens werden für jede Verbindung 45 behandelte Pflanzen jeder Wiederholung benutzt, wobei 15 Pflanzen von denen zwecks Selbstbestäurun^g des Blütenkörbchens isoliert werden, 15 andere Pflanzen mit einem Pollengemisch, gesammelt von 20 bis 25 behandelten isolierten Körbchen, bestäubt werden und 15 Pflanzen für freie Bestäubeung gelassen werden, damit das Ansetzen von Ächänen mit dem Pollen der Vaterform kontrolliert werden kann.
(§4) Man beurteilt die Pollensterilität von Pflanzen der Sonnenblume nach der Pollenfertilität und -keimfähigkeit, nach den morphologischen Besonderheiten von Spermien und nach der Fähigkeit von Achänen zum Ansetzen bei der Bestäubung der behandelten isolierten Pflanzen mit dem Pollen der unbehandelten väterlichen Form. Die Lebensfähigkeit der Eizelle wird nach der Samenbildung von behandelten Pflanzen bei freier Bestäubung der väterlichen Form ermittelt.
(§5) Pflanzen der Sonneblume Sorte Peredovik und Linie BK-119 werden in der V. Periode der Organogenese (nach Kupermann) mit einer 0,5%igen wässrigen Emulsion der N-Karbamoylmaleaminsäure behandelt. Die Emulsion enthält 0,01 Masse% Dimethylsulfoxid und 0,1 Masse% Kalziumalkylbenzolsulfonat mit 12 bis 14 Kohlenstoffatomen. Der Verbrauch an Präparat beträgt 3 kg/ha. Die gleichen Pflanzen werden mit einer 0,1masseprozentigen wässrigen Emulsion der N-(3-Dimethylaminopropyl)-maleaminsäure behandelt. Im letzten Falle enthält die Emulsion 0,01 Masse% Dodezylsulfat und 0,1 Masse% Kalziumalkylbenolsulfonat mit 12 bis 14 Kohlensotffatomen. Der Verbrauch an Präparat beträgt 1 kg/ha. Als Kontrolle dienen Pflanzen, behandelt mit einem Verdünner.ohne Sterilisationsmittel. Die Prufergenisse sind in der Tabelle 14 dargestellt. […] Periode der Organogenese erhalten.

[2] = test system: Sonneblume Sorte Peredovik; test: Field test of pollen sterilisation, sunflower variety Peredovik; type: in vivo, Sonnenblume; settings: period V, 0.5% emulsion; for Prozentsatz der Sterilität: 3 kg/ha (N-Karbamoylmaleaminsäure) or 0.1% emulsion, 1 kg/ha (N-(3-Dimethylaminopropyl)-maleaminsäure); for Ansetzen von Ächänen bei freier Bestäubung in %: 3 kg/ha or 0.1% emulsion, 1 kg/ha, free pollination
Text: as §1, §2, §3, §4, §5

[3] = test system: Winterweizens Sorte Mir.onovskaya 808; test: Field test of pollen sterilisation (gametocidal activity), winter wheat Mironovskaya 808; type: in vivo, Winterweizen; settings: 2% aqueous emulsion, 20 kg/ha
Text: Als Emulgierungsmittel wird 0,1 Masse% Kalziumalkylbenzolsulfonat mit 12 bis 14 Kohlenstoffatomen hinzugefügt. Als Adjuvans fährt man in die Emulsion 0,01 Masse% Dimethylsulfoxid ein. Der Verbrauch an Präparat beträgt 20 kg/ha. Als Kontrolle dienen Pflanzen, behandelt mit einem Verdünner ohne Sterilisationsmittel.

[4] = test system: Winterweizens Sorte Bezostaya 1; test: Field test of pollen sterilisation, winter wheat Bezostaya 1; type: in vivo, Winterweizen; settings: 2% aqueous emulsion, 16 kg/ha
Text: Pflanzen des Winterweizens Sorte Bezostaya 1 werden in der V. Periode der Organogenese durch Zerstäubung einer 2%igen wässrigen Emulsion von N-(2-Dimethylaminoäthyl)-maleaminsäure, N-(3-Dimethylaminopropyl)-maleaminsäure, N-Äthylmaleaminsäure, N-(2-Hydroxyäthyl)-maleaminsäure, N-Karbamoylmaleaminsäure mit Hilfe deiner Rückspritze behandelt. Die Emulsion enthält 0,1 Masse% Kalziumalkylbenzolsulfonat mit 12 bis 14 Kohlenstoffatomen. Als Adjuvans führt man in die Emulsion 0,01 Masse% Tetrahydrofuran ein.
Der Verbrauch an Präparat beträgt 16 kg/ha. Als Kontrolle dienen Pflanzen, behandelt mit einem Verdünner ohne Sterilisationsmitteln.

[5] = test system: Sommerweizens Sorte Moskovskaya 35; test: Field test of pollen sterilisation, spring wheat Moskovskaya 35; type: in vivo, Sommerweizen; settings: 1% aqueous emulsion, 10 kg/ha
Text: Pflanzen des Sommerweizens Sorte Moskovskaya 35 werden in V. Periode der Organogenese (nach Kupermann) mit einer 1%igen wässrigen Emulsion von N-(2-Dimethyl-aminoäthyl)-maleaminsäure, N-(3-Dimethylaminopropyl)-maleaminsäure, N-Äthylmaleaminsäure, N-(2-Hydroxyäthyl) maleaminsäure bzw. N-Karbamoylmaleaminsäure behandelt. Die Emulsion enthält 0,5 Masse% Kalziumalkylbenzolsulfonat mit 12 bis 14 Kohlenstoffatomen als Emulgierungsmittel und 0,01 Masse% Dimethylformamid als Adjuvans. Der Verbrauch an Präparat beträgt 10 kg/ha. Als Kontrolle dienen Pflanzen, behandelt mit einem Verdünner ohne Sterilisationsmittel.

[6] = test system: Sommerweizens Sorte Botanicheskaya 4; test: Field test of pollen sterilisation, spring wheat Botanicheskaya 4; type: in vivo, Sommerweizen; settings: 1% aqueous emulsion, 6 kg/ha
Text: Pflanzen des Sommerweizens Sorte Botanicheskaya 4 werden in der V. Periode der Organogenese (nach Kupermann) mit einer 1%igen Wässrigen Emulsion von N-(2-Dimethyl-aminoäthyl)-maleaminsäure, N-(3-Dimethylaminopropyl)-maleaminsäure, N-Äthylmaleaminsäure, N-(2-Hydroxyäthyl)-maleaminsäure bzw. N-Karbamoylmaleaminsäure behandelt. Die Emulsion enthält 0,5 Masse% Kalziumalkylbenzolsulfonat mit 12 bis 14 Kohlenstoffatomen und 0,01 Masse% Dimethylsulfoxid als Adjuvans. Der Verbrauch an Präparat beträgt 6 kg/ha. Als Kontrolle dienen Pflanzen, behandelt mit einem Verdünner ohne Sterilisationsmittel.

[7] = test system: tetraploidem Roggen Sorte Belta; test: Field test of pollen sterilisation, tetraploid rye Belta; type: in vivo; settings: 1% aqueous emulsion, 10 kg/ha
Text: as §1, §2
(§6) Mit dem Ahrenschiebe verwirklicht man die Isolierung von Hauptähren und anderen Stockwerken in Pergamentbeuteln. Bei Weizen und Tritikale werden Einzelisolatoren verwendet. Bei Roggen schliesst man je Ähre 5 bis 7 verschiedene nebeneinander befindliche Pflanzen unter einen gemeinsamen Isolator ein. Bei Hirse wird jede Rispe getrennt isoliert. Der Sterilitätsprozentsatz (X) für Weizen, Roggen, Tritikale und Hirse wird nach folgender Formel [formula] ermittelt.
(§7) Die Kornzahl in nicht isolierten ähren von Kontrollpflanzen wird bedingt für 100% Ansetzen bei freier Bestäubung angenommen.
(§8) Um zuverlässige Angaben zu erhalten, verwendet man 20 bis 25 Isolatoren jeder Wiederholung für Weisen und Tritikale, 10 bis 15 Gruppenisolatoren jeder Wiederholung für Roggen und Hirse.
Pflanzen von tetraploidem Roggen Sorte Belta werden in der V. Periode der Organogenese (nach Kupermann) mit einer 1%igen wässrigen Emulsion von N-(2-Dimethylamino- .äthyl)maleaminsäure, N-(3-Dimethylaminopropyl)maleaminsäure, N-Äthylmaleaminsäure, N-(2-Hydroxyäthyl)maleaminsäure bzw. Karbamoylmaleaminsäure behandelt. Die Emulsion enthält 0,5 Masse% Kalziumalkylbenzolsulfonat mit 12 bis 14 Kohlenstoffatomen und 0,01 Masso% Tetrahydrofuran. Der Verbrauch an Präparat beträgt 10 kg/ha. Die Prüfergebnisse sind in der Tabelle 5 dargestellt. […] Periode der Organogenese erhalten.

[8] = test system: tetraploidem Roggen Sorte Ukrainskaya tetra; test: Field test of pollen sterilisation, tetraploid rye Ukrainskaya tetra; type: in vivo; settings: 1% aqueous emulsion, 6 kg/ha
Text: (§9) Jedes Sterilisationsmittel wurde mindestens 5 Jahre lang geprüft.
as §2, §6, §7, §8
Pflanzen von tetraploidem Roggen Sorte Ukrainskaya tetra werden in der V. Periode der Organogenese (nach Kupermann) mit einer 1%igen wässrigen Emulsion von N-(2-Dimethylaminoäthyl)maleaminsäure, N-(3-Dimethyl-aminopropu)maleaminsäure bzw. N-Karbamoylmaleaminsäure behandelt. Die Emulsion enthält 0,1 Masse% Kaliumalkylbenzolsulfonat mit 12 bis 14 Kohlenstoffatomen und 0,01 Masse% Dodezylsulfat. Der Verbrauch an Präparat beträgt 6 kg/ha. Als Kontrolle dienen Pflanzen, behandelt mit einem Verdünner ohne Sterilisationsmittel. Die Prüfergebnisse sind in der Tabelle 6 dargestellt.

[9] = test system: diploidem Roggen Sorte Voskhod 2; test: Field test of pollen sterilisation, diploid rye Voskhod 2; type: in vivo; settings: 1% aqueous emulsion, 10 kg/ha
Text: Die Emulsion enthält 0,1 Masse% Kalziumalkylbenzolsulfonat und 0,01 Masse% Dimethylformamid. Der Verbrauch an Präparat beträgt 10 kg/ha. Als Kontrolle dienen Pflanzen, behandelt mit einem Lösungsmittel ohne Sterilisationsmittel.

[10] = test system: diploidem Roggen Sorte Chulpan; test: Field test of pollen sterilisation, diploid rye Chulpan; type: in vivo; settings: 1% aqueous emulsion, 8 kg/ha
Text: (§10) Mit dem Ahrenschiebe verwirklicht man die Isolierung von Hauptähren und anderen Stockwerken in Pergamentbeuteln. […] Bei Roggen schliesst man je Ähre 5 bis 7 verschiedene nebeneinander befindliche Pflanzen unter einen gemeinsamen Isolator ein. […] Der Sterilitätsprozentsatz (X) für Weizen, Roggen, Tritikale und Hirse wird nach folgender Formel [formula] ermittelt.
Die Emulsion enthält 0,01 Masse% Tetranydrofuran und 0,1 Masse% Kalziumalkylbenzolsulfonat mit 12 bis 14 Kohlenstoffatomen. Der Verbrauch an Präparat beträgt 8 kg/ha. Als Kontrolle dienen Pflanzen, behandelt mit einem Verdünner ohne Sterilisationsmittel.

[11] = test system: diploidem Roggen Sorte Talovskaya 12; test: Field test of pollen sterilisation, diploid rye Talovskaya 12; type: in vivo; settings: 1% aqueous emulsion, 6 kg/ha
Text: as §10
Pflanzen von diploidem Roggen Sorte Talovskaya 12 werden in der V. Periode der Organogenese (nach Kupermann) mit einer 1%igen wässrigen Emulsion von N-(2-Di- methylaminoäthyl)-maleaminsäure, N-(3-Dimethylaminopropyl)-maleaminsäure, N-Äthylmaleaminsäure, N-(2-Hydroxyäthyl)maleaminsäure, N-Karbamoylmaleaminsäure behandelt. Die Emulsion enthält 0,01 Masse% Dodezylsulfat und 0,1 Masse% Kalziumalkylbenzolsulfonat mit 12 bis _14 Kohlenstoffatomen. Der Verbrauch an Präparat beträgt 6 kg/ha. Als Kontrolle dienen Pflanzen, behandelt mit einem Verdünner ohne Sterilisationsmittel.

[12] = test system: Tritikale Sorte Prag 109; test: Field test of pollen sterilisation, triticale Prag 109; type: in vivo; settings: 2% aqueous emulsion, 12 kg/ha
Text: as §9, §2, §6, §7, §8
V.Periode der Organogenese (nach Kupermann) mit einer 2%igen wässrigen Emulsion von N-(3-Dimethylaminopropyl) maleaminsäure, N-Karbamoylmaleaminsäure behandelt. Die Emulsion enthält 0,01 Masse% Tetrahydrofuran […] und 0,1 Masse% Kalziumalkylbenzolsulfonat mit 12 bis 14 Kohlensotffatomen. Der Verbrauch an Präparat beträgt 12 kg/ha. Als Kontrolle dienen Pflanzen, behandelt mit einem Verdünner ohne Sterilisationsmittel.

[13] = test system: Hirse Sorte Mironovskoe 94; test: Field test of pollen sterilisation, millet Mironovskoe 94; type: in vivo; settings: 1% aqueous emulsion, 8 kg/ha
Text: as §1, §2, §6, §7, §8
Pflanzen der Hirse Sorte Mironovskoe 94 werden in der V. Periode der Organogenese (nach Kupermann) mit einer 1%igen wässrigen Emulsion von N-(2-Dimethylaminoäthyl)maleaminsäure, N-(3-Dimethylaminopropyl)maleaminsäure, N-Äthylmaleaminsäure, N-(2-Hydroxyäthyl)maleaminsäure, N-Karbamoylmaleaminsäure behandelt. Die Emulsion enthält 0,01 Masse% Dimethylaulfoxid und 0,1 Masse% Kalziumalkylbenzolsulfonat mit 12 bis 14 Kohlenstoffatomen. Der Verbrauch an Präparat beträgt 8 kg/ha. Als Kontrolle dienen Pflanzen, behandelt mit einem Verdünner ohne Sterilisationsmittel. Die Prüfergebnisse sind in der Tabelle 12 dargestellt. […] Periode der Organogenese erhalten.

[14] = Toxicity test in animals (LD50); settings: in vivo; animal test, per kg animal weight; species and route not given
Text: Alle erfindungsgemässen N-substituierten Maleaminsäuren, welche als Sterilisationsmittel zur Verwendung kommen, waren auf die Toxizität im Tierversuch geprüft. Die Prüfergebnisse haben ergeben, dass die angegebenen Verbindungen von schwacher oder mittlerer Toxizität sind.

[15] = period V of organogenesis, free pollination
[16] = period V of organogenesis, isolated ears
[17] = period V, non-isolated control ears = 100%

SMILES: CN(C)CCCNC(=O)/C=C\C(=O)O [Beispiel 64, N-(3-Dimethylaminopropyl)-maleaminsäure]
- Prozentsatz der Sterilität [1]: 100,0%
- Ansetzen von Ächänen bei freier Bestäubung in % [1]: 80,4%

SMILES: NC(=O)NC(=O)/C=C\C(=O)O [Beispiel 59, N-Karbamoylmaleaminsäure]
- Prozentsatz der Sterilität [2]: 100,0%
- Ansetzen von Ächänen bei freier Bestäubung in % [2]: 81,7%

SMILES: NC(=O)NC(=O)/C=C\C(=O)O [Beispiel 5, N-Karbamoylmaleaminsäure]
- Prozentsatz der Sterilität ([3]; period V of organogenesis): 100,0%
- Anzahl von Körnern der Ähre bei freier Bestäubung [3, 15]: 40,0
- Anzahl von Körnern der Ähre im Isolator [3, 16]: 0,0
- Prozentsatz des Ansetzens von Körnern bei freier Bestäubung [3, 17]: 93,9%
- Prozentsatz der Sterilität ([4]; period V of organogenesis): 97,8%
- Anzahl von Körnern der Ähre bei freier Bestäubung [4, 15]: 41,8
- Anzahl von Körnern der Ähre im Isolator [4, 16]: 0,7
- Prozentsatz des Ansetzens von Körnern bei breier Bestäubung [4, 17]: 97,4%
- Prozentsatz der Sterilität ([5]; period V of organogenesis): 100,0%
- Anzahl von Körnern der Ähre bei freier Bestäubung [5, 15]: 27,2
- Anzahl von Körnern der Ähre im Isolator [5, 16]: 0,0
- Prozentsatz des Ansetzens von Körnern bei freier Bestäubung [5, 17]: 98,9%
- Prozentsatz der Sterilität ([6]; period V of organogenesis): 100,0%
- Anzahl von Körnern der Ähre bei freier Bestäubung [6, 15]: 27,1
- Anzahl von Körnern der Ähre im Isolator [6, 16]: 0,0
- Prozentsatz des Ansetzens von Körnern bei freier Bestäubung [6, 17]: 90,0%
- Prozentsatz der Sterilität ([7]; period V of organogenesis): 100,0%
- Anzahl von Körnern der Ähre bei freier Bestäubung [7, 15]: 47,8
- Anzahl von Körnern der Ähre im Isolator [7, 16]: 0,0
- Prozentsatz des Ansetzens von Körnern bei freier Bestäubung [7, 17]: 87,2%
- Prozentsatz der Sterilität ([8]; period V of organogenesis): 99,4%
- Anzahl von Körnern der Ähre bei freier Bestäubung [8, 15]: 44,0
- Anzahl von Körnern der Ähre im Isolator [8, 16]: 0,2
- Prozentsatz des Ansetzens von Körnern bei freier Bestäubung [8, 17]: 98,2%
- Prozentsatz der Sterilität ([9]; period V of organogenesis): 98,2%
- Anzahl von Körnern der Ähre bei freier Bestäubung [9, 15]: 51,7
- Anzahl von Körnern der Ähre im Isolator [9, 16]: 0,9
- Prozentsatz des Ansetzens von Körnern bei freier Bestäubung [9, 17]: 93,7%
- Prozentsatz der Sterilität ([10]; period V of organogenesis): 100,0%
- Anzahl von Körnern der Ähre bei freier Bestäubung [10, 15]: 48,7
- Anzahl von Körnern der Ähre im Isolator [10, 16]: 0,0
- Prozentsatz des Ansetzens von Körnern bei freier Bestäubung [10, 17]: 85,7%
- Prozentsatz der Sterilität ([11]; period V of organogenesis): 100,0%
- Anzahl von Körnern der Ähre bei freier Bestäubung [11, 15]: 48,9
- Anzahl von Körnern der Ähre im Isolator [11, 16]: 0,0
- Prozentsatz des Ansetzens von Körnern bei freier Bestäubung [11, 17]: 87,0%
- Prozentsatz der Sterilität ([12]; period V of organogenesis): 100,0%
- Anzahl von Körnern der Ähre bei freier Bestäubung [12, 15]: 39,6
- Anzahl von Körnern der Ähre im Isolator [12, 16]: 0,0
- Prozentsatz des Ansetzens von Körnern bei freier Bestäubung [12, 17]: 86,5%
- Prozentsatz der Sterilität ([13]; period V of organogenesis): 100,0%
- Anzahl von Körnern der Rispe bei freier Bestäubung [13, 15]: 198,2
- Anzahl von Körnern der Rispe im Isolator ([13]; period V of organogenesis, isolated panicles): 0,0
- Prozentsatz des Ansetzens von Körnern bei freier Bestäubung ([13]; period V, non-isolated control = 100%): 87,2%
- LD50 [14]: 2000 mg/kg

SMILES: NC(=O)NC(=O)/C=C\C(=O)O [Beispiel 61, N-Karbamoylmaleaminsäure]
- Prozentsatz der Sterilität [1]: 100,0%
- Ansetzen von Ächänen bei freier Bestäubung in % [1]: 82,5%

SMILES: CN(C)CCCNC(=O)/C=C\C(=O)O [Beispiel 60, N-(3-Dimethylaminopropyl)-maleaminsäure]
- Prozentsatz der Sterilität [2]: 100,0%
- Ansetzen von Ächänen bei freier Bestäubung in % [2]: 84,9%
